Laboratory results published in US20090239841A1, “Diaryl Ureas as CB1 Antagonists” (priority 2004, published 2009).

Target: T1, hCB1 (Homo sapiens, UniProt P21554)
T1 construct: made in house; host or cells: Sf9 insect cells (baculovirus), P2 membranes
Assay: Agonist-induced GTP binding (GTPγ35S) assay at CB1, Example 8
Type: biochemical
Conditions: Table II; IC50 at CB1, GTP binding with 1 nM CP55,940; read-out: IC50
Summary of the method: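 Antagonism read as inhibition of 1 nM CP55,940-stimulated GTPγ35S ([…]) binding, compounds at 10^−10 to 10^−5 M. Baculovirus-infected Sf9 membranes bearing hCB1 plus G-protein subunits, 60 min room-temperature incubation with 5 μM GDP. Filtration and scintillation counting; data as percent over basal.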

T1 sequence (P21554 whole entry): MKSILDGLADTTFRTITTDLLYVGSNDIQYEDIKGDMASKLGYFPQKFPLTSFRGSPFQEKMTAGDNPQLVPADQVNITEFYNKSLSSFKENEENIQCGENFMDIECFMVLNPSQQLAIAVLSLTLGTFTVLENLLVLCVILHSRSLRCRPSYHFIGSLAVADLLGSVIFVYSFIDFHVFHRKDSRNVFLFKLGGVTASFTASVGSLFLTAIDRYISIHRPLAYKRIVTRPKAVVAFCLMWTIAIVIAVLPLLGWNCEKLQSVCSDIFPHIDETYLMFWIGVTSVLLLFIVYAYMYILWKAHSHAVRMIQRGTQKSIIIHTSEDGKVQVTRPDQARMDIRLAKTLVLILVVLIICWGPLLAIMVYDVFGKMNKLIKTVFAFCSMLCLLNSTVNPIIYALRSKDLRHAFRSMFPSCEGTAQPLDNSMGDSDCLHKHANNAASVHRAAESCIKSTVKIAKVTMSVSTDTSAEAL

Structure (SMILES)	IC50 [nM]
COCc1ccc(NC(=O)Nc2cccc(Cl)c2)cc1 [Compound 241, N-(3-chlorophenyl)-N′-[4-(methoxymethyl)phenyl]urea]	< 2000
COCc1ccc(NC(=O)Nc2ccc(Cl)cc2)cc1 [Compound 242, N-(4-chlorophenyl)-N′-[4-(methoxymethyl)phenyl]urea]	< 2000
CCCOc1ccc(NC(=O)Nc2cccc(CC)c2)cc1 [Compound 243, N-(3-ethylphenyl)-N′-(4-propoxyphenyl)urea]	< 2000
CCCOc1ccc(NC(=O)Nc2cccc(Cl)c2)cc1 [Compound 244, N-(3-chlorophenyl)-N′-(4-propoxyphenyl)urea]	< 2000
CCCOc1ccc(NC(=O)Nc2ccc(Cl)cc2)cc1 [Compound 245, N-(4-chlorophenyl)-N′-(4-propoxyphenyl)urea]	< 2000
CCc1cccc(NC(=O)Nc2cccc(OC(C)C)c2)c1 [Compound 246, N-(3-ethylphenyl)-N′-(3-isopropoxyphenyl)urea]	< 2000
CC(C)Oc1cccc(NC(=O)Nc2cccc(Cl)c2)c1 [Compound 247, N-(3-chlorophenyl)-N′-(3-isopropoxyphenyl)urea]	< 2000
CC(C)Oc1cccc(NC(=O)Nc2ccc(Cl)cc2)c1 [Compound 248]	< 2000
CCc1cccc(NC(=O)Nc2ccc(OC(C)C)cc2)c1 [Compound 249, N-(3-ethylphenyl)-N′-(4-isopropoxyphenyl)urea]	< 2000
CCc1ccc(NC(=O)Nc2ccc(OC(C)C)cc2)cc1 [Compound 250, N-(4-ethylphenyl)-N′-(4-isopropoxyphenyl)urea]	< 2000
CC(C)Oc1ccc(NC(=O)Nc2cccc(Cl)c2)cc1 [Compound 251, N-(3-chlorophenyl)-N′-(4-isopropoxyphenyl)urea]	< 2000
CC(C)Oc1ccc(NC(=O)Nc2ccc(Cl)cc2)cc1 [Compound 252, N-(4-chlorophenyl)-N′-(4-isopropoxyphenyl)urea]	< 2000
CCc1cccc(NC(=O)Nc2cccc(OC(F)F)c2)c1 [Compound 253, N-[3-(difluoromethoxy)phenyl]-N′-(3-ethylphenyl)urea]	< 2000
CCc1ccc(NC(=O)Nc2cccc(OC(F)F)c2)cc1 [Compound 254, N-[3-(difluoromethoxy)phenyl]-N′-(4-ethylphenyl)urea]	< 2000
O=C(Nc1cccc(Cl)c1)Nc1cccc(OC(F)F)c1 [Compound 255, N-(3-chlorophenyl)-N′-[3-(difluoromethoxy)phenyl]urea]	< 2000
O=C(Nc1ccc(Cl)cc1)Nc1cccc(OC(F)F)c1 [Compound 256, N-(4-chlorophenyl)-N′-[3-(difluoromethoxy)phenyl]urea]	< 2000
O=C(Nc1ccc(Cl)cc1)Nc1ccc(OC(F)F)cc1 [Compound 257, N-(4-chlorophenyl)-N′-[4-(difluoromethoxy)phenyl]urea]	< 2000
COc1cccc(NC(=O)Nc2ccc(C(C)=O)cc2)c1 [Compound 258, N-(4-acetylphenyl)-N′-(3-methoxyphenyl)urea]	< 2000
COc1ccc(NC(=O)Nc2cccc(C#N)c2)cc1 [Compound 259, N-(3-cyanophenyl)-N′-(4-methoxyphenyl)urea]	< 2000
COc1ccc(NC(=O)Nc2ccc(C(C)=O)cc2)cc1 [Compound 260, N-(4-acetylphenyl)-N′-(4-methoxyphenyl)urea]	< 2000
CCOc1cccc(NC(=O)Nc2ccc(C#N)cc2)c1 [Compound 261, N-(4-cyanophenyl)-N′-(3-ethoxyphenyl)urea]	< 2000
CCOc1cccc(NC(=O)Nc2cccc(C#N)c2)c1 [Compound 262, N-(3-cyanophenyl)-N′-(3-ethoxyphenyl)urea]	< 2000

Structure (SMILES)	IC50 [nM]
CCOc1cccc(NC(=O)Nc2ccc(C(C)=O)cc2)c1 [Compound 263, N-(4-acetylphenyl)-N′-(3-ethoxyphenyl)urea]	< 2000
CCOc1ccc(NC(=O)Nc2ccc(C#N)cc2)cc1 [Compound 264, N-(4-cyanophenyl)-N′-(4-ethoxyphenyl)urea]	< 2000
CCOc1ccc(NC(=O)Nc2cccc(C#N)c2)cc1 [Compound 265, N-(3-cyanophenyl)-N′-(4-ethoxyphenyl)urea]	< 2000
CCOc1ccc(NC(=O)Nc2cccc(C(C)=O)c2)cc1 [Compound 266, N-(3-acetylphenyl)-N′-(4-ethoxyphenyl)urea]	< 2000
CCOc1ccc(NC(=O)Nc2ccc(C(C)=O)cc2)cc1 [Compound 267, N-(4-acetylphenyl)-N′-(4-ethoxyphenyl)urea]	< 2000
COCc1ccc(NC(=O)Nc2cccc(C#N)c2)cc1 [Compound 269, N-(3-cyanophenyl)-N′-[4-(methoxymethyl)phenyl]urea]	< 2000
COCc1ccc(NC(=O)Nc2cccc(C(C)=O)c2)cc1 [Compound 270, N-(3-acetylphenyl)-N′-[4-(methoxymethyl)phenyl]urea]	< 2000
COCc1ccc(NC(=O)Nc2ccc(C(C)=O)cc2)cc1 [Compound 271, N-(4-acetylphenyl)-N′-[4-(methoxymethyl)phenyl]urea]	< 2000
CCCOc1ccc(NC(=O)Nc2ccc(C#N)cc2)cc1 [Compound 272, N-(4-cyanophenyl)-N′-(4-propoxyphenyl)urea]	< 2000
CCCOc1ccc(NC(=O)Nc2cccc(C#N)c2)cc1 [Compound 273, N-(3-cyanophenyl)-N′-(4-propoxyphenyl)urea]	< 2000
CCCOc1ccc(NC(=O)Nc2cccc(C(C)=O)c2)cc1 [Compound 274, N-(3-acetylphenyl)-N′-(4-propoxyphenyl)urea]	< 2000
CCCOc1ccc(NC(=O)Nc2ccc(C(C)=O)cc2)cc1 [Compound 275, N-(4-acetylphenyl)-N′-(4-propoxyphenyl)urea]	< 2000
CC(C)Oc1cccc(NC(=O)Nc2cccc(C#N)c2)c1 [Compound 276, N-(3-cyanophenyl)-N′-(3-isopropoxyphenyl)urea]	< 2000
CC(=O)c1cccc(NC(=O)Nc2cccc(OC(C)C)c2)c1 [Compound 277, N-(3-acetylphenyl)-N′-(3-isopropoxyphenyl)urea]	< 2000
CC(=O)c1ccc(NC(=O)Nc2cccc(OC(C)C)c2)cc1 [Compound 278, N-(4-acetylphenyl)-N′-(3-isopropoxyphenyl)urea]	< 2000
CC(C)Oc1ccc(NC(=O)Nc2ccc(C#N)cc2)cc1 [Compound 279, N-(4-cyanophenyl)-N′-(4-isopropoxyphenyl)urea]	< 2000
CC(C)Oc1ccc(NC(=O)Nc2cccc(C#N)c2)cc1 [Compound 280, N-(3-cyanophenyl)-N′-(4-isopropoxyphenyl)urea]	< 2000
CC(=O)c1cccc(NC(=O)Nc2ccc(OC(C)C)cc2)c1 [Compound 281, N-(3-acetylphenyl)-N′-(4-isopropoxyphenyl)urea]	< 2000
CC(=O)c1ccc(NC(=O)Nc2ccc(OC(C)C)cc2)cc1 [Compound 282, N-(4-acetylphenyl)-N′-(4-isopropoxyphenyl)urea]	< 2000
N#Cc1ccc(NC(=O)Nc2cccc(OC(F)F)c2)cc1 [Compound 283, N-(4-cyanophenyl)-N′-[3-(difluoromethoxy)phenyl]urea]	< 2000
N#Cc1cccc(NC(=O)Nc2cccc(OC(F)F)c2)c1 [Compound 284, N-(3-cyanophenyl)-N′-[3-(difluoromethoxy)phenyl]urea]	< 2000
